Active and inactive are the calls of the source.
Key:
[1] = system: A549; assay: Upregulation of p21 protein expression in human A549 cells at 100 nM measured after 24 hrs; assay type: functional, cell-based
[2] = biological target: Protein cereblon/Bromodomain-containing protein 3 (Homo sapiens) (UniProt Q15059+Q96SW2); assay: PROTAC activity at CRBN/BRD3 in human A549 cells assessed as degradation of BRD3 protein level at 100 nM incubated for 24 hrs; assay type: cell-based
[3] = system: A549; assay: Upregulation of p53 protein expression in human A549 cells at 10 to 100 nM; assay type: functional, cell-based; settings: dose 10-100 nM, time 3-24 hrs, TDE = time-dependent effect
[4] = biological target: Protein cereblon/Bromodomain-containing protein 2 (Homo sapiens) (UniProt P25440+Q96SW2); assay: PROTAC activity at CRBN/BRD2 in human A549 cells assessed as degradation of BRD2 protein level at 100 nM incubated for 24 hrs; assay type: cell-based
[5] = biological target: Protein cereblon/Bromodomain-containing protein 4 (Homo sapiens) (UniProt O60885+Q96SW2); assay: PROTAC activity at CRBN/BRD4 in human A549 cells assessed as degradation of BRD4 protein level at 100 nM incubated for 24 hrs; assay type: cell-based
[6] = system: A549; assay: Upregulation of p53 protein expression in human A549 cells measured after 3 to 24 hrs; assay type: functional, cell-based; settings: dose 10-100 nM, time 3-24 hrs

Measured: Activity

Sequence of Protein cereblon/Bromodomain-containing protein 4 (Homo sapiens) (Q96SW2 whole entry, looked up, other chains not shown): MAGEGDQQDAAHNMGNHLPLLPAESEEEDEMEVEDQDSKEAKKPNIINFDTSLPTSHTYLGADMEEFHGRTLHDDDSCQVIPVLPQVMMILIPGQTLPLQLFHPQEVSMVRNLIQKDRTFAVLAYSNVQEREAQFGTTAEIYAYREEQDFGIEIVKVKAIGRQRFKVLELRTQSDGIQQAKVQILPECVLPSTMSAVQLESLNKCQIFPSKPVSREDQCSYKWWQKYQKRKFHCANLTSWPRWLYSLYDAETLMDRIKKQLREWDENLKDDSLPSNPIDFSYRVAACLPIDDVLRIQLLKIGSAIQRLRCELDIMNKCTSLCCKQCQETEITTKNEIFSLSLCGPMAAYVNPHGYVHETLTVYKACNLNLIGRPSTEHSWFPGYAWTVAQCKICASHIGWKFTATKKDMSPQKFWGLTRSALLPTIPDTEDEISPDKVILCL
Sequence of Protein cereblon/Bromodomain-containing protein 3 (Homo sapiens) (Q15059 2-726 limits assumed): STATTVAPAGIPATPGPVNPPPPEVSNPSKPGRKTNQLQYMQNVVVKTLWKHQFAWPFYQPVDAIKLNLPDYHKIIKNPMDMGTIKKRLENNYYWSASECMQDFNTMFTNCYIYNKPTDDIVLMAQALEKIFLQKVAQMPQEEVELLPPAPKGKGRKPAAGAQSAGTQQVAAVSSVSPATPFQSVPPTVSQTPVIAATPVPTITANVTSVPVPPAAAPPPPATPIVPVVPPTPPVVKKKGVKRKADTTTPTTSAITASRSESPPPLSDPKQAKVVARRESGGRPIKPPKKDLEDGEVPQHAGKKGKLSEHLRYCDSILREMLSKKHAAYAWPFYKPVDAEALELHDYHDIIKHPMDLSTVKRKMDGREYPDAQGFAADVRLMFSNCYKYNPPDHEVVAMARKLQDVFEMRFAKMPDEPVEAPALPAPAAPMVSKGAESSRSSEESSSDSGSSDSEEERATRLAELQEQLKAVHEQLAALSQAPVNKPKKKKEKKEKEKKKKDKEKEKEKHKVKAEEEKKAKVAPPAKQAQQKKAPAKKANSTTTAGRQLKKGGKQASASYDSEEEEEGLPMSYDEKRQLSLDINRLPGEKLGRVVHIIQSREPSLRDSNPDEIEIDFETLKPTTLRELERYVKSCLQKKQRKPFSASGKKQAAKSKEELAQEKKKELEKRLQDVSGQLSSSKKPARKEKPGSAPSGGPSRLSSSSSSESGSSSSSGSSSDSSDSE
Sequence of Protein cereblon/Bromodomain-containing protein 3 (Homo sapiens) (Q96SW2 whole entry partner): as the sequence (Q96SW2 whole entry, looked up, other chains not shown) above
Sequence of Protein cereblon/Bromodomain-containing protein 2 (Homo sapiens) (P25440 whole entry, looked up): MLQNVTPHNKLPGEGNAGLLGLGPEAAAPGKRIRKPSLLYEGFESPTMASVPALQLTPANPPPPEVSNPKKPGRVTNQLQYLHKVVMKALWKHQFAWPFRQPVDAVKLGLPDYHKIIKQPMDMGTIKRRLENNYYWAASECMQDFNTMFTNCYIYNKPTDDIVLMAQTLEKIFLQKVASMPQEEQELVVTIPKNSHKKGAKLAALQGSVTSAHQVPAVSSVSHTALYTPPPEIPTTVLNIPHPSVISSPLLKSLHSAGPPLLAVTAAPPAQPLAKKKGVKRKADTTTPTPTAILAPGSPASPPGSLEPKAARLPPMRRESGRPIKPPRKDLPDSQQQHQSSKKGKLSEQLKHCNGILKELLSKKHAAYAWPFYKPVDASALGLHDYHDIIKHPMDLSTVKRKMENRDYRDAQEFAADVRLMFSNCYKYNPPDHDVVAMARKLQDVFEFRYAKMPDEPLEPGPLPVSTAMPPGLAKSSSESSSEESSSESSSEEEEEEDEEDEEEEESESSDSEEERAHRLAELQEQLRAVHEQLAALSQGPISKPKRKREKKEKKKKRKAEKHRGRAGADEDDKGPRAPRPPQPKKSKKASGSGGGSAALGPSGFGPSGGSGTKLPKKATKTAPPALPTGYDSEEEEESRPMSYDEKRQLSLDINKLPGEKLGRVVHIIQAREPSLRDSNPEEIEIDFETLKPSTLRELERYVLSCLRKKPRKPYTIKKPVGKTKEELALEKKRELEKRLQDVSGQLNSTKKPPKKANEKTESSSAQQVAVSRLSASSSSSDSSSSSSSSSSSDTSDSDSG
Sequence of Protein cereblon/Bromodomain-containing protein 2 (Homo sapiens) (Q96SW2 whole entry, looked up): as the sequence (Q96SW2 whole entry, looked up, other chains not shown) above

CCn1nc(C2CC2)cc1Nc1nc(C(=O)NCCCCCc2cccc3c2CN(C2CCC(=O)NC2=O)C3=O)nc2[nH]c3cc(-c4c(C)noc4C)c(OC)cc3c12 (stereo unspecified)
active: [1] | [2] | [3] Tde | [4] | [5] | [6] Dose-Dependent Effect
